Laboratory results as given in US11739098B2 (BRISTOL-MYERS SQUIBB COMPANY, priority 2017, dated 2023).

Key:
Format in all cases: cell-based
[1] = target: T1, human TLR9 (Homo sapiens, UniProt Q9NR96); assay: TLR9 inhibition reporter assay (HEK-Blue cells, SEAP reporter, ODN2006 stimulation); conditions: HEK-Blue cells overexpressing human TLR9, SEAP reporter, ODN2006 5 nM
T1 construct: host or cells: HEK-Blue cells (HEK293-derived reporter line)
T1 sequence (Q9NR96 26-1032): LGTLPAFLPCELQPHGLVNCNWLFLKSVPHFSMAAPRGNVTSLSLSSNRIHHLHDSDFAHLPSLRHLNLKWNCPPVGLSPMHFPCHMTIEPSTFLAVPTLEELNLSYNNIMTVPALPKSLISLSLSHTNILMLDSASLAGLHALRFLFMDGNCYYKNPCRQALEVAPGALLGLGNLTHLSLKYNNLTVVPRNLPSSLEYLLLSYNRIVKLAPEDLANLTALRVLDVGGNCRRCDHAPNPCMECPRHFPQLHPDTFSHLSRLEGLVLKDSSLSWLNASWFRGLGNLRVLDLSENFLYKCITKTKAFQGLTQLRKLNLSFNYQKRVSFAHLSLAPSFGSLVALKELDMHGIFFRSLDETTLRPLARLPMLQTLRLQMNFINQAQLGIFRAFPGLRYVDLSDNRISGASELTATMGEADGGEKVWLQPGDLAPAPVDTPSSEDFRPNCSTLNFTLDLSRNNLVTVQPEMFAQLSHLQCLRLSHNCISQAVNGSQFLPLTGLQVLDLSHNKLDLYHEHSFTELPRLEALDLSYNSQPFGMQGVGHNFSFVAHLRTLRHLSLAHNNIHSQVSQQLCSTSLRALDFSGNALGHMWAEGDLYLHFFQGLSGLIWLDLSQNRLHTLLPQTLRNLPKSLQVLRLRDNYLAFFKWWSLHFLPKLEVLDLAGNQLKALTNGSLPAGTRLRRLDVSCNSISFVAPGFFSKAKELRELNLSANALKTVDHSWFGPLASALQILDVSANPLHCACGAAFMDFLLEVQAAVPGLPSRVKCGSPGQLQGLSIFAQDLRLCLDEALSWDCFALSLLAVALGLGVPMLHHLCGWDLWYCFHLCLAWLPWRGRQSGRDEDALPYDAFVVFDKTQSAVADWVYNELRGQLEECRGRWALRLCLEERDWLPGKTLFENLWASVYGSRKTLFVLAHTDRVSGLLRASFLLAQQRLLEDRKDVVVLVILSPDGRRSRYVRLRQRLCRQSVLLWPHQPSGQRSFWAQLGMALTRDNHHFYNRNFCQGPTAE
Procedure, shortened: (§1)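 Cells seeded per well (15000 TLR7, 20,000 TLR8, 25,000 TLR9); compound added over 0.05 nM–50 μM for 30 min at room temperature; agonist added (TLR7 gardiquimod 7.5 μM, TLR8 R848 15.9 μM, TLR9 ODN2006 5 nM); 22 h at 37 °C; SEAP measured; percent inhibition calculated.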

[2] = target: T2, human TLR7 (Homo sapiens, UniProt Q9NYK1); assay: TLR7 inhibition reporter assay (HEK-Blue cells, SEAP reporter, gardiquimod stimulation); conditions: HEK-Blue cells overexpressing human TLR7, SEAP reporter, gardiquimod 7.5 μM
T2 construct: host or cells: HEK-Blue cells (HEK293-derived reporter line)
T2 sequence (Q9NYK1 27-1049): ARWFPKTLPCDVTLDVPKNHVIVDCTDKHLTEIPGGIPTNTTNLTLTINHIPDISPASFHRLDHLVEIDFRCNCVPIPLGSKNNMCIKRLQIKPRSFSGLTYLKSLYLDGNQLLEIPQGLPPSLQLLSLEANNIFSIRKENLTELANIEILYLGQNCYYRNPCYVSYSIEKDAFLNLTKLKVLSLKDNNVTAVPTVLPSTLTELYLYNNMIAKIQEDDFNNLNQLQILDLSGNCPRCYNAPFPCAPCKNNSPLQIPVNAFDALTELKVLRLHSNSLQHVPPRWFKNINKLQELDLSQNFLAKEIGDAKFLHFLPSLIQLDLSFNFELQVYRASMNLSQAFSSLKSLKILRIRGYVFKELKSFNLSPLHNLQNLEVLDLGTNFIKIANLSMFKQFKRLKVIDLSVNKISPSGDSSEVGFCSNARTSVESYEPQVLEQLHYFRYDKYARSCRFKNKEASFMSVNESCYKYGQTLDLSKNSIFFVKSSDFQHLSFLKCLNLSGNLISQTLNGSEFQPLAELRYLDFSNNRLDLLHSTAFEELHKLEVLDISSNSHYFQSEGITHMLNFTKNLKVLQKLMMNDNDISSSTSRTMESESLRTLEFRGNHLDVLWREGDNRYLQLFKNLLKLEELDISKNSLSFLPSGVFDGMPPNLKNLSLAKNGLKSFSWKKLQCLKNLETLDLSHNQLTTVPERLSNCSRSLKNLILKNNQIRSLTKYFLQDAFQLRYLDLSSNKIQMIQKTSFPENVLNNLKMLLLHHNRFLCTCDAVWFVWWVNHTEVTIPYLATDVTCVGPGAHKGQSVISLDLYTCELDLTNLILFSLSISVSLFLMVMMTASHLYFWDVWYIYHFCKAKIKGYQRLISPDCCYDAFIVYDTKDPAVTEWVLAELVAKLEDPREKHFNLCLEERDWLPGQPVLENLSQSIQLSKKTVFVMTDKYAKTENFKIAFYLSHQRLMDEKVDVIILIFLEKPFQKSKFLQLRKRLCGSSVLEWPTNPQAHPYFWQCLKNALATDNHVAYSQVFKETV
Procedure, shortened: as §1

[3] = target: T3, human TLR8 (Homo sapiens, UniProt Q9NR97); assay: TLR8 inhibition reporter assay (HEK-Blue cells, SEAP reporter, R848 stimulation); conditions: HEK-Blue cells overexpressing human TLR8, SEAP reporter, R848 15.9 μM
T3 construct: host or cells: HEK-Blue cells (HEK293-derived reporter line)
T3 sequence (Q9NR97 27-1041): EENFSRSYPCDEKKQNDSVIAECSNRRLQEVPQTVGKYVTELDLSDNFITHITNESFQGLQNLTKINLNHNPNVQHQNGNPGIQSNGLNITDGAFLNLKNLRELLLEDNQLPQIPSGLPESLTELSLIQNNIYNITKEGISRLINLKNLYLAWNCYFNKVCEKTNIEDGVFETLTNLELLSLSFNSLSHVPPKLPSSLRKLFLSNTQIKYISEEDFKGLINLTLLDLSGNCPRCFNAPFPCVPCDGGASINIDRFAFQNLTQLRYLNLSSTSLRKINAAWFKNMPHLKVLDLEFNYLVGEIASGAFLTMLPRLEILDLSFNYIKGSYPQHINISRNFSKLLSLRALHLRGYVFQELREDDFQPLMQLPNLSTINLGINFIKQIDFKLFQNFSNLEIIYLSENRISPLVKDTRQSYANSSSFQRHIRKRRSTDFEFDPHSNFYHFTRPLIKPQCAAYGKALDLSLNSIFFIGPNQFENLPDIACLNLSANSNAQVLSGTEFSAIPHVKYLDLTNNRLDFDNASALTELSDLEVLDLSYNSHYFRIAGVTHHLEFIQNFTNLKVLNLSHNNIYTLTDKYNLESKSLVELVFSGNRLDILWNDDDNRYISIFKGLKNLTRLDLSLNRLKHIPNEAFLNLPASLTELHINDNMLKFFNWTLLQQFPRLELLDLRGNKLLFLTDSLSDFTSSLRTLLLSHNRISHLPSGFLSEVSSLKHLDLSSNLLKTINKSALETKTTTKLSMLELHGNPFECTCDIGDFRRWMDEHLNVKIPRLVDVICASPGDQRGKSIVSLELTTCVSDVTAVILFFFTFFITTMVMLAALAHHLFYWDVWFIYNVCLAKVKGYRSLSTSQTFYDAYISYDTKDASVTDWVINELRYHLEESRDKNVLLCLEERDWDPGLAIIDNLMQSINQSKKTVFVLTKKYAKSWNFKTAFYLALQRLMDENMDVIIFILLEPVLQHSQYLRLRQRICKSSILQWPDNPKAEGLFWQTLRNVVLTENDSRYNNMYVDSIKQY
Procedure, shortened: as §1

Row | Compound | IC50 [1] [µM] | IC50 [2] [µM] | IC50 [3] [µM]
1 | Cc1nc2c(-c3[nH]c4ccc(C5CCN(CC(C)(C)O)CC5)cc4c3C(C)C)ccc(C)n2n1 [Example 768, 1-(4-(2-(2,5-dimethyl-[1,2,4]triazolo[1,5-a]pyridin-8-yl)-3-isopropyl-1H-indol-5-yl)piperidin-1-yl)-2-methylpropan-2-ol] | 1 to 50 | > 3.13 | 1 to 50
2 | CC(C)c1c(-c2cnc3c(cnn3C)c2)[nH]c2ccc(C3CCNCC3)cc12 [Example 96, 5-(3-isopropyl-5-(piperidin-4-yl)-1H-indol-2-yl)-1-methyl-1H-pyrazolo[3,4-b]pyridine] | 0.1 to 1 | < 0.1 | < 0.1
3 | COc1nc(-c2[nH]c3ccc(C4CCNCC4)cc3c2C(C)C)cn2ncnc12 [Example 47, 6-(3-isopropyl-5-(piperidin-4-yl)-1H-indol-2-yl)-8-methoxy-[1,2,4]triazolo[1,5-a]pyrazine] | 1 to 50 | 0.1 to 1 | > 3.13
4 | CN(C)CC(=O)N1CCC(c2ccc3[nH]c(-c4cc(F)c5nccn5c4)c(CC(F)F)c3c2)CC1 [Example 546, 1-(4-(3-(2,2-difluoroethyl)-2-(8-fluoroimidazo[1,2-a]pyridin-6-yl)-1H-indol-5-yl)piperidin-1-yl)-2-(dimethylamino)ethan-1-one] | 0.1 to 1 | < 0.1 | 0.1 to 1
5 | Cc1c(-c2[nH]c3ccc(C4CCN(C(=O)CN(C)C)CC4)cc3c2C(C)C)cn2nnnc2c1C [Example 468, 2-(dimethylamino)-1-(4-(2-(7,8-dimethyltetrazolo[1,5-a]pyridin-6-yl)-3-isopropyl-1H-indol-5-yl)piperidin-1-yl)ethan-1-one] | 1 to 50 | < 0.1 | < 0.1
6 | CCc1c(-c2cccc3c2cnn3C)[nH]c2ccc(C3CCNCC3)cc12 [Example 100, 4-(3-ethyl-5-(piperidin-4-yl)-1H-indol-2-yl)-1-methyl-1H-indazole] | 1 to 50 | 1 to 50 | > 50
7 | Cc1cc(-c2[nH]c3ccc(C4CCN(C(=O)CN5CC(C)(C)OC(C)(C)C5)CC4)cc3c2C(C)C)cn2nnnc12 [Example 473, 1-(4-(3-isopropyl-2-(8-methyltetrazolo[1,5-a]pyridin-6-yl)-1H-indol-5-yl)piperidin-1-yl)-2-(2,2,6,6-tetramethylmorpholino)ethan-1-one] | > 50 | < 0.1 | 0.1 to 1
8 | CC(C)c1c(-c2cc(C(F)(F)F)c3nccn3c2)[nH]c2ccc(C3CCN(C(C)C)CC3)cc12 [Example 942, 6-(3-isopropyl-5-(1-isopropylpiperidin-4-yl)-1H-indol-2-yl)-8-(trifluoromethyl)imidazo[1,2-a]pyridine] | 1 to 50 | < 0.1 | < 0.1
9 | CC(C)c1c(-c2ccnc3[nH]ncc23)[nH]c2ccc(C3CCN(C(=O)CCC(=O)N(C)C)CC3)cc12 [Example 613, 4-(4-(3-isopropyl-2-(1H-pyrazolo[3,4-b]pyridin-4-yl)-1H-indol-5-yl)piperidin-1-yl)-N,N-dimethyl-4-oxobutanamide] | > 50 | 0.1 to 1 | 0.1 to 1
10 | CC(C)c1c(-c2cnc3c(cnn3C)c2)[nH]c2ccc(C3CCN(CC(C)(C)O)CC3)cc12 [Example 764, 1-(4-(3-isopropyl-2-(1-methyl-1H-pyrazolo[3,4-b]pyridin-5-yl)-1H-indol-5-yl)piperidin-1-yl)-2-methylpropan-2-ol] | 1 to 50 | < 0.1 | < 0.1
11 | CC(C)c1c(-c2ccc3ncnn3n2)[nH]c2ccc(C3CCN(C4CCOCC4)CC3)cc12 [Example 683, 6-(3-isopropyl-5-(1-(tetrahydro-2H-pyran-4-yl)piperidin-4-yl)-1H-indol-2-yl)-[1,2,4]triazolo[1,5-b]pyridazine] | 1 to 50 | < 0.1 | < 0.1
12 | CC(C)c1c(-c2cccn3ncnc23)[nH]c2ccc(C3CCN(C(=O)CN(C)C)CC3)cc12 [Example 514, 1-(4-(2-([1,2,4]triazolo[1,5-a]pyridin-8-yl)-3-isopropyl-1H-indol-5-yl)piperidin-1-yl)-2-(dimethylamino)ethan-1-one] | 1 to 50 | 0.1 to 1 | 0.1 to 1
13 | Cc1cc(-c2[nH]c3ccc(C4CCNCC4)cc3c2C(C)C)cc2c(O)c(C#N)cnc12 [Example 107, 4-hydroxy-6-(3-isopropyl-5-(piperidin-4-yl)-1H-indol-2-yl)-8-methylquinoline-3-carbonitrile] | 1 to 50 | 1 to 50 | > 3.13
14 | CC(C)c1c(-c2ccc3ncnn3n2)[nH]c2ccc(C3CCN(C(=O)CN(C)C)CC3)cc12 [Example 452, 1-(4-(2-([1,2,4]triazolo[1,5-b]pyridazin-6-yl)-3-isopropyl-1H-indol-5-yl)piperidin-1-yl)-2-(dimethylamino)ethan-1-one] | 1 to 50 | < 0.1 | < 0.1
